According to patent US20250186470A1, “Compositions and Methods Using Lactulose for Treating Disease” (THE UNIVERSITY OF CHICAGO, priority 2023, published 2025):

Key:
[1] = tested on: Proteobacteria (Enterobacteriaceae); test: Fecal shotgun metagenomics of hospitalized liver disease patients stratified by lactulose exposure: Enterobacteriaceae/Proteobacteria abundance; format: in vivo, human; details: fecal samples from lactulose-treated patients
[2] = tested on: VRE (vancomycin resistant Enterococcus faecium, ATCC 700221); test: VRE growth curves in B. longum conditioned media, SCFA- or lactulose-supplemented media; format: cell-based; details: 50 mM lactulose in media
Description: FIGS. 11A-11F: Bifidobacterium longum supernatant inhibits VRE growth in vitro. (A) Schematic of experimental design for VRE growth in B. longum conditioned media (CM). B. longum was grown in BHIS for 24-hours prior to collecting and filtering the supernatant. VRE growing at steady state was then diluted to a low density (OD600=0.05) prior to inoculating in various dilutions of B. longum conditioned media in fresh BHIS. (B) VRE growth curves in 100%, 50%, 12.5%, and 0% CM with the pH of the 4 concentrations of CM in BHIS shown in the right portion of this panel. […] (E) VRE was grown in minimal media containing either no additive (blue) or 50 mM lactulose, and OD600 was measured over time. (F) VRE was grown in BHIS with or without 50 mM lactulose, and OD600 was measured over time. […]
The Bifidobacteria longum strains MSK.11.12 and DFI.2.45 were previously derived from two distinct healthy donor stool samples and whole genome sequenced (BioSample ID: SAMN19731851 and SAMN22167409). […] All growth curves were obtained in anaerobic culture conditions at 37° C. on a BioTek EPOCH2 microplate reader with BioTek Gen 5 3.11 software. Growth curves were analyzed in GraphPad Prism Version 9.4.0. Lactulose concentrations in were measured using the EnzyChrom™ Lactulose Assay Kit (ELTL-100).

bacteremia = test: Bacteremia in liver disease patients paired with fecal samples, logistic regression; format: in vivo, human
Description: FIGS. 13A-13E: Bifidobacteria expansion and associated metabolite production are associated with decreased incidence of bacteremia). (A) Flow diagram depicting number of samples and number of patients that were filtered out at each step of analysis for bacteremia. (B) Taxonomic relative abundance by shotgun metagenomics of stool samples paired to blood cultures is plotted in order of decreasing Bifidobacteria abundance from left to right. Underneath each stool sample is the clinical diagnosis associated with a given blood culture (bacteremia (red) or no bacteremia (green)). (C) Volcano plot of normalized metabolite concentrations. P-values were calculated using a two-tailed Wilcoxon rank sum test and are corrected for multiple comparisons using the Benjamini-Hochberg procedure. Values with log 2 fold-change >1 (corresponding to a 2-fold change with a p-value <0.05) were considered significant. (D and E) Quantitative levels for butyrate, propionate, lithocholic acid, and alloisolithocholic acid were compared from samples associated and not associated with SBP. Units for SCFA are mM, and units for BA derivatives are in μg/mL. Each point represents a single sample. Median and interquartile range are indicated by the horizontal line and box, respectively. […] Statistical comparisons between individual groups were analyzed using a two-tailed Wilcoxon rank sum test. […]

Enterococcus = test: Fecal shotgun metagenomics of hospitalized liver disease patients stratified by lactulose exposure: Enterococcus abundance; format: in vivo, human; details: for Regression estimate, association with Enterococcus abundance: Table S1, factors lactulose, PPI, stool consistency, antibiotics
[3] = lactulose 10 days, B. longum colonized mice
[4] = fecal samples from lactulose-treated patients

OC[C@H]1O[C@@H](O[C@@H]2[C@@H](CO)OC(O)(CO)[C@H]2O)[C@H](O)[C@@H](O)[C@H]1O (mixture of isomers) [Lactulose, lactulose]
Enterobacteriaceae abundance, mean [1]: 7.9%
Enterobacteriaceae abundance, median [1]: 0.9%
Enterobacteriaceae abundance, range [1]: 0.0-98.8%
VRE growth [2]: modestly augments
Samples with lactulose exposure among bacteremia (bacteremia; N = 19): (32%)
Samples with lactulose exposure among no bacteremia (bacteremia; N = 227): (65%)
Stool water content (B. longum; GF mice, 20 g/L lactulose in water): increased
Fecal acetate concentration (B. longum; [3]): elevated
Fecal conjugated BA concentrations (B. longum; [3]): reduced
Fecal unconjugated primary BA concentrations (B. longum; [3]): elevated
Lactulose in stool (B. longum; mouse, in vivo): detectable
Regression estimate, association with Enterococcus abundance (Enterococcus): 0.11
Regression estimate, association with Enterococcus abundance (Enterococcus; listed as lactulose): positively associates
Enterococcus abundance, mean (Enterococcus; [4]): 19.4%
Enterococcus abundance, median (Enterococcus; [4]): 0.9%
Enterococcus abundance, range (Enterococcus; [4]): 0.0-100%
